Assay [1] addresses T1, recombinant full-length (fl)Tau aggregates (longest isoform of human Tau, 2N4R; 441 amino acids) (Homo sapiens, UniProt P10636).
T1 construct: 35 μM of recombinant full-length (fl)Tau in PBS were aggregated for 24 hours; made in house; host or cells: bacteria
The assay can be described thus: Full-length Tau (flTau) disaggregation assay by Thioflavin T (ThT). It counts as biochemical. Conditions: ThT fluorescence; 2 μM flTau aggregates, 30 minutes at RT. Here is the method:
Full-Length Tau (flTau) Disaggregation Assay by Thioflavin T (ThT)
The longest isoform of human Tau (2N4R; 441 amino acids) was expressed in bacteria and purified. For the Tau disaggregation assay by ThT, 35 μM of recombinant full-length (fl)Tau in PBS were aggregated for 24 hours at 37° C. in presence of 50 μM of heparin (Sigma-Aldrich) and 10 mM of DTT (Sigma-Aldrich) under shaking at 750 RPM. Compounds were dissolved in anhydrous dimethyl sulfoxide (DMSO, Sigma-Aldrich) to reach a concentration of 10 mM. flTau aggregates and serial dilutions of compounds were mixed together in PBS (volume 50 μL) to a final concentration of 2 μM of flTau aggregates and from 160 to 0.04 μM of compounds. The mixture was incubated for 30 minutes at room temperature (RT), then 40 μL of this mixture were transferred into a black 384-well plate assay (Perkin-Elmer) and mixed with 10 μL of 100 μM ThT in 250 mM glycine (both from Sigma-Aldrich) in PBS. Fluorescence (relative fluorescence units; RFU) was measured in monoplicate or duplicate on a Tecan reader (excitation: 440 nm; emission: 485 nm). Percentage of flTau disaggregation was then calculated and the half maximal effective concentration (EC50) was determined using GraphPad Prism version 5 (GraphPad Software) assuming a one-binding site fitting model.

Assay [2] has as its target T2, Aggregated human Tau in human neuroblastoma cell line overexpressing full-length human Tau P301L (Homo sapiens, UniProt P10636, P618L).
T2 construct: overexpressing the full-length form of human Tau carrying the P301L mutation; expressed in transfected cells; host or cells: human neuroblastoma cell line (G418 selection)
The assay can be described thus: Reduction of intracellular Tau aggregation (AlphaLISA, aggregated Tau normalized to total Tau). It counts as cell-based. Conditions: compound at 5 μM, 24 h, relative to DMSO-treated cells. The protocol: Reduction of Intracellular Tau Aggregation
A human neuroblastoma cell line overexpressing the full-length form of human Tau carrying the P301L mutation was cultured in complete medium [DMEM-F12 4.5 g/L Glutamax (Invitrogen), 15% FBS (Biochrom), 1% Peni/Strep (Invitrogen) supplemented with 2.5 μg/ml of G418 (Sigma-Aldrich) selection antibiotic]. The day before the experiment 5×10^5 cells/well were plated in a 6 well plate in 3 mL of complete medium. The next day, cells were incubated with DMSO or a compound of the present invention at 5 μM for additional 24 h at 37° C. After incubation, cells were trypsinized, resupsended in 100 μl of homogenization buffer [25 mM Tris-HCl pH 7.4, 150 mM NaCl, 1 mM EDTA, 1 mM EGTA containing phosphatase inhibitors (30 mM NaF, 0.2 mM Na3VO4, 1 nM okadaic acid, 1 mM PMSF, 5 mM Na4P2O7) and protease inhibitor cocktail (Complete™, Roche)], and then physically lysed with three rapid cycles of freezing and thawing. Samples were then directly tested in the AlphaLISA assay.
Phosphorylated, aggregated, and total Tau were quantified by AlphaLisa using the following antibody pairs: • HT7-Acceptor beads+biotin (BT)-Tau13-Donor beads: Total Tau • HT7-Acceptor beads+biotin (BT)-HT7-Donor beads: Aggregated human Tau
The Tau13 (Abcam) was biotinylated using EZ-Link® NHS-PEO Solid Phase biotinylation kit (Thermo Scientific), while the HT7-biotin was from a commercial source (Thermo Scientific).
For each antibody pairs the concentration of acceptor beads and biotinylated antibodies was optimized. All samples were first tested in a dilution series in PBS in order to identify the linear range and optimal dilution for each sample and assay. For the final protocol, the following reagents were added in a 384-well white OptiPlate (PerkinElmer): • 5 μL of test diluted sample • 20 μL of the mixture biotin-mAb acceptor beads at the following final concentrations: • HT7-BT at 1.25 nM in combination with HT7-Acc beads at 10 μg/ml • Tau13-BT at 5 nM in combination with HT7-Acc beads at 2.5 μg/ml
After incubation of this mixture at room temperature for 1 h, 25 μL of Streptavidin Donor beads (Perkin Elmer) at 25 μg/mL were added in the dark. Plates were analyzed after 30 min incubation using the EnSpire Alpha instrument and EnSpire Workstation version 3.00. Data for aggregated Tau were normalized to total Tau and then expressed as percentage of the DMSO-treated cells.

The target in assay [3] is T3, Tau K18 fragment aggregates (amino acids 244 to 372 of human Tau441) (Homo sapiens, UniProt P10636).
T3 construct: encompassing amino acids 244 to 372 of the longest isoform (2N4R) of human Tau441; host or cells: bacteria
The assay can be described thus: Tau K18 disaggregation assay by ThT. Conditions: ThT fluorescence; 2 μM K18 aggregates, 30 minutes at RT. The assay is classed as biochemical. The protocol: Tau K18 Disaggregation Assay by ThT
The Tau K18 fragment, encompassing amino acids 244 to 372 of the longest isoform (2N4R) of human Tau441, was expressed in bacteria and purified or bought from SignalChem. For the K18 disaggregation assay by ThT, 35 μM of recombinant K18 in PBS were aggregated for 24 hours at 37° C. in presence of 50 μM of heparin (Sigma-Aldrich) and 10 mM of DTT (Sigma-Aldrich) under shaking at 750 RPM. Compounds were dissolved in anhydrous dimethyl sulfoxide (DMSO, Sigma-Aldrich) to reach a concentration of 10 mM. K18 aggregates and serial dilutions of compounds were mixed together in PBS (volume 50 μL) to a final concentration of 2 μM of K18 aggregates and from 160 to 0.04 μM of compounds. The mixture was incubated for 30 minutes at room temperature (RT), then 40 μL of this mixture were transferred into a black 384-well plate assay (Perkin-Elmer) and mixed with 10 μL of 100 μM ThT in 250 mM glycine (both from Sigma-Aldrich) in PBS. Fluorescence (relative fluorescence units; RFU) was measured in monoplicate or duplicate on a Tecan reader (excitation: 440 nm; emission: 485 nm). Percentage of K18 disaggregation was then calculated and half maximal effective concentration (E050) was determined using GraphPad Prism version 5 (GraphPad Software) assuming a one-binding site fitting model.

Here are results for 40 molecules from patent publication US20210267989A1, “Novel Compounds for the Treatment, Alleviation or Prevention of Disorders Associated with Tau Aggregates” (AC Immune SA, priority 2018, published 2021).

By EC50 is commonly meant the concentration that produces a half-maximal response.

SMILES strings stand for the structures. Counter-ions that a name gives are not always drawn.

T3 sequence (P10636 561-689): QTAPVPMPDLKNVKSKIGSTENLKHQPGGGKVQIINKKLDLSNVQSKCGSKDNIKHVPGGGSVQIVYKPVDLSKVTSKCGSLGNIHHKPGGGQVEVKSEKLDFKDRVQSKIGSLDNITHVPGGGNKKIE
T2 sequence (P10636 1-441 isoform P10636-8 P301L): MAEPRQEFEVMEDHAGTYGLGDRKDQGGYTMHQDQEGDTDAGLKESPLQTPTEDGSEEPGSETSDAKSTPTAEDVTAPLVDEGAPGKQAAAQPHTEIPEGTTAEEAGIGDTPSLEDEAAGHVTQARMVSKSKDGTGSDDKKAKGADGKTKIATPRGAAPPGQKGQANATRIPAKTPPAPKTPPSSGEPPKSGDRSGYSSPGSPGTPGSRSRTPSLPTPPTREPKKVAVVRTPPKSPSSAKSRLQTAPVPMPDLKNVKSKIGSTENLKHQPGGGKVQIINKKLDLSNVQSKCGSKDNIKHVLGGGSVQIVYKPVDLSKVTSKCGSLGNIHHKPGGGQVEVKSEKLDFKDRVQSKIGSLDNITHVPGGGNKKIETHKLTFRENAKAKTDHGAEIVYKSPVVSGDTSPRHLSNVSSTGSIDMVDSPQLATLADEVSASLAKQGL
T1 sequence (P10636 1-441 isoform P10636-8): as the sequence (P10636 1-441 isoform P10636-8 P301L) above, with L301P counted along it

For `Cn1c2c(c3ccccc31)CCN(c1ccc3nc(N4CCOCC4)sc3c1)C2` [Example 1], the EC50 in assay [1] was less than 10 µM.
On the same count and under the same terms, then `CN(C)c1nc2ccc(N3CCc4c(n(C)c5ccccc45)C3)cc2s1` [Example 2], with less than 10 µM; and `Cn1c2c(c3ccc(F)cc31)CCN(c1ccc3nc(N4CCOCC4)sc3c1)C2` [Example 6], with less than 10 µM.
The same measure, in the same setting: under `Cn1c2c(c3ccc(F)cc31)CCN(c1ccc3sc(N4CCOCC4)nc3c1)C2` [Example 7] stands less than 10 µM; under `Cn1c2c(c3cc(F)ccc31)CCN(c1ccc(N3CCOCC3)nc1)C2` [Example 8], less than 10 µM.
For `COc1cc(N2CCc3c(n(C)c4ccc(F)cc34)C2)ccc1F` [Example 9], the concentration for a half-maximal effect (EC50) in assay [1] was less than 10 µM.
Take `CN(C)c1nc2cc(N3CCc4c(n(C)c5ccc(F)cc45)C3)ccc2s1` [Example 11]: the EC50 in assay [1] is less than 10 µM.
On to `CN(C)c1nc2ccc(N3CCc4c(n(C)c5ccc(F)cc45)C3)cc2o1` [Example 12], for which, in assay [1], the EC50 was less than 10 µM. Also, the “% Reduction of intracellular Tau aggregation” value (“% Reduction” below) in assay [2] was “+ (+ % 25 < x < 10)”.
`CN(C)c1nc2cc(N3CCc4c(n(C)c5ccc(F)cc45)C3)ccc2o1` [Example 13]: in assay [1], the EC50 is less than 10 µM.
Same read-out and setting: then `COc1ccc2c(c1)c1c(n2C)CN(c2ccc3sc(N4CCOCC4)nc3c2)CC1` [Example 14], with less than 10 µM; and `COc1ccc2c(c1)c1c(n2C)CN(c2ccc3nc(N4CCOCC4)sc3c2)CC1` [Example 15], with less than 10 µM; and `COc1ccc2c(c1)c1c(n2C)CN(c2ccc3oc(N4CCOCC4)nc3c2)CC1` [Example 16], with less than 10 µM.
Same read-out and setting: under `COc1ccc2c(c1)c1c(n2C)CN(c2ccc3sc(N(C)C)nc3c2)CC1` [Example 17] stands less than 10 µM.
On the same count and under the same terms, then `COc1ccc2c(c1)c1c(n2C)CN(c2ccc3nc(N(C)C)sc3c2)CC1` [Example 18], with less than 10 µM; and `COc1ccc2c(c1)c1c(n2C)CN(c2ccc3nc(N(C)C)oc3c2)CC1` [Example 19], with less than 10 µM.
In assay [3], `COc1ccc2c(c1)c1c(n2C)CN(c2ccc3oc(N(C)C)nc3c2)CC1` [Example 21] came in with a concentration for a half-maximal effect (EC50) of less than 10 µM. The “% Reduction” value in assay [2] is on record as “+ (+ % 25 < x < 10)”.
In assay [3], `c1ccc2c3c([nH]c2c1)CN(c1ccc2nc(N4CCOCC4)sc2c1)CC3` [Example 38] yielded an EC50 of less than 10 µM. Also, the “% Reduction” value in assay [2] is “+ (+ % 25 < x < 10)”.
The like results for `c1ccc2c3c([nH]c2c1)CN(c1ccc(N2CCOCC2)cn1)CC3` [Example 43] were, in that order, less than 10 µM and “++ (++ % 50 < x < 25)”.
Take `c1ccc2c3c([nH]c2c1)CN(c1ccc(N2CCOCC2)nc1)CC3` [Example 44 HCl]: the concentration giving a half-maximal response (EC50) in assay [1] is less than 10 µM.
On the same count and under the same terms, then `Cn1c2c(c3ccccc31)CCN(c1ccc(N3CCOCC3)cn1)C2` [Example 45 HCl], with less than 10 µM.
For `Cn1c2c(c3ccccc31)CCN(c1ccc(N3CCOCC3)cn1)C2` [Example 45], the EC50 in assay [3] was less than 10 µM. Further, the “% Reduction” value in assay [2] is “++ (++ % 50 < x < 25)”.
In the case of `Cn1c2c(c3ccccc31)CCN(c1ccc(N3CCOCC3)nc1)C2` [Example 46 HCl], the EC50 in assay [1] is 10 to 25 µM.
The same measure, in the same setting: then `c1ccc2c3c([nH]c2c1)CN(c1ccc(N2CC4COCC4C2)nc1)CC3` (stereo not drawn) [Example 69 HCl], with less than 10 µM; and `c1ccc2c3c([nH]c2c1)CN(c1ccc(N2CC4CC(C2)O4)nc1)CC3` [Example 71 HCl], with 10 to 25 µM; and `C[C@H]1CN(c2ccc(N3CCc4c([nH]c5ccccc45)C3)cn2)CCO1` [Example 74 HCl], with less than 10 µM.
The same measure, in the same setting: under `C[C@@H]1CN(c2ccc(N3CCc4c([nH]c5ccccc45)C3)cn2)CCO1` [Example 75 HCl] stands less than 10 µM; under `C[C@@H]1CN(c2ccc(N3CCc4c([nH]c5ccccc45)C3)cn2)C[C@H](C)O1` [Example 76 HCl], less than 10 µM; under `C[C@H]1COCCN1c1ccc(N2CCc3c([nH]c4ccccc34)C2)cn1` [Example 79 HCl], 10 to 25 µM.
With `c1ccc2c3c([nH]c2c1)CN(c1ccc(N2CC4(CCOCC4)C2)nc1)CC3` [Example 80 HCl], the EC50 in assay [1] was 10 to 25 µM.
The same measure, in the same setting: then `c1ccc2c3c([nH]c2c1)CN(c1ccc(N2CCC4(CC2)COC4)nc1)CC3` [Example 83 HCl], with 25 to 50 µM; and `c1ccc2c3c([nH]c2c1)CN(c1ccc(N2C[C@H]4C[C@@H]2CO4)nc1)CC3` [Example 85 HCl], with 10 to 25 µM; and `c1ccc2c3c([nH]c2c1)CN(c1ccc(N2C[C@@H]4C[C@H]2CO4)nc1)CC3` [Example 86 HCl], with less than 10 µM.
The same measure, in the same setting: under `Cn1c2c(c3cc(F)ccc31)CCN(c1ccc3oc(N4CCOCC4)nc3c1)C2` [Example 104] stands less than 10 µM; under `Cn1c2c(c3cccnc31)CCN(c1ccc(N3CCOCC3)nc1)C2` [Example 105 HCl], 25 to 50 µM; under `Cn1c2c(c3cc(F)cnc31)CCN(c1ccc(N3CCOCC3)cn1)C2` [Example 107 HCl], 25 to 50 µM.
Still for that read-out and setting: under `Fc1ccc2c3c([nH]c2c1)CN(c1ccc(N2CCOCC2)nc1)CC3` [Example 108 HCl] stands less than 10 µM; under `Fc1ccc2c3c([nH]c2c1)CN(c1ccc(N2CCOCC2)cn1)CC3` [Example 109 HCl], less than 10 µM; under `Cn1c2c(c3ccc(F)cc31)CCN(c1ccc(N3CCOCC3)nc1)C2` [Example 110 HCl], less than 10 µM.
As to `Cn1c2c(c3ccc(F)cc31)CCN(c1ccc(N3CCOCC3)cn1)C2` [Example 111 HCl], the EC50 in assay [1] was less than 10 µM.
`CCn1c2c(c3ccccc31)CCN(c1ccc(N3CCOCC3)nc1)C2` [Example 123 HCl]: in assay [1], the EC50 was less than 10 µM.
